Experiments:
Leishmania CRK3–CYC6 = target: T1, Leishmania CRK3–CYC6 (Leishmania mexicana, UniProt O15851); test: radiometric CRK3 assay; assay type: biochemical, L. mexicana CRK3, L. major CYC6
T1 sequence (O15851 1-311): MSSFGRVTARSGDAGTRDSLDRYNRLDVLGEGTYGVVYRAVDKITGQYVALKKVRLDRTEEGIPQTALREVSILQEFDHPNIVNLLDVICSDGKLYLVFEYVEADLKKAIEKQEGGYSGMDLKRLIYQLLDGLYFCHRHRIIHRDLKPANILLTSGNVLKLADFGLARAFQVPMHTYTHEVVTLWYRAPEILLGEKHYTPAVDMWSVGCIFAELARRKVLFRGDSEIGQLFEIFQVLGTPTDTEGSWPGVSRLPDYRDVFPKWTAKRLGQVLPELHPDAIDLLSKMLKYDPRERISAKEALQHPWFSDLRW
T1 sequence (Q4Q4U0 1-303 partner): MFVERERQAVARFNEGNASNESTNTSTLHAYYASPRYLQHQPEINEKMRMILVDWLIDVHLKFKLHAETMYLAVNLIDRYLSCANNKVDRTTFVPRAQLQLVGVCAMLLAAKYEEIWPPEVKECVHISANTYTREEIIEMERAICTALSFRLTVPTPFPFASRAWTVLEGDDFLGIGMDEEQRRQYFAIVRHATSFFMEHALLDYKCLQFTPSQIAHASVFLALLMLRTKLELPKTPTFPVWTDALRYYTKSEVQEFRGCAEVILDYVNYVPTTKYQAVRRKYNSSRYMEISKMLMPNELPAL

HsCDK2–CYCA = HsCDK2–CYCA (Homo sapiens, UniProt P24941); test: radiometric CDK2 counter-screen; assay type: biochemical; conditions: HsCDK2–CYCA IC50 [μM], mean of two or more experiments; 1 μM ATP
[1] = target: T2, Leishmania CRK3–CYC6 complex (Leishmania mexicana, UniProt O15851); test: IMAP-FP primary screen; assay type: biochemical, L. mexicana CRK3, L. major CYC6; conditions: for inhibition at 30 µM: read-out: CRK3–CYC6 Inhib. [%]
T2 sequence (O15851 1-311): T1 sequence (O15851 1-311)
T2 sequence (Q4Q4U0 1-303 partner): T1 sequence (Q4Q4U0 1-303 partner)

[2] = tested on: panel of 76 human kinases; test: DSTT Dundee kinase panel; assay type: biochemical; conditions: for selectivity against panel of 76 human kinases (in words): 10 μM
[3] = mammalian cell line counter-screen; assay type: cell-based; conditions: human, MRC5 cells
[4] = CRK3–CYC6 IC50 [μM], mean of two or more experiments, 1 μM ATP

Row | Structure (SMILES) | IC50 (Leishmania CRK3–CYC6; [4]) [µM] | IC50 (HsCDK2–CYCA) [µM] | further results
1 | CC(=O)Nc1cc(-c2ccc(Cl)cc2)n[nH]1 [Compound 2, N-(5-(4-Chlorophenyl)-1H-pyrazol-3-yl)acetamide] | 3 | 1.6 | inhibition at 30 µM [1]: 74%
2 | O=C(Nc1cc(-c2ccc(Cl)cc2)[nH]n1)C1CCC1 [Compound 7, N-(5-(4-Chlorophenyl)-1H-pyrazol-3-yl)cyclobutanecarboxamide] | 0.9 | 1.2 | inhibition at 30 µM [1]: 99%
3 | O=C(Nc1cc(-c2ccc(Cl)cc2)[nH]n1)c1cccnc1 [Compound 10, N-(5-(4-Chlorophenyl)-1H-pyrazol-3-yl)nicotinamide] |  |  | inhibition at 30 µM [1]: 100%
4 | O=C(Nc1cc(-c2ccc(Cl)cc2)[nH]n1)C1CCCCC1 [Compound 11, N-[5-(4-Chlorophenyl)-1H-pyrazol-3-yl]cyclohexanecarboxamide] |  |  | selectivity against panel of 76 human kinases (in words) [2]: highly selective; number of human kinases with >50 % inhibition at 10 μM ([2]; of 76 kinases): three; inhibition at 30 µM [1]: 100%
5 | Cc1cccc(-c2ccc3nc(NCC4CCCCC4)nn3c2)c1 [Compound 36] | 3 | 64 | 
6 | CC1(C)CC(=O)C=C(NC(=O)Nc2ccccc2)C1 [Compound 50] | 0.095 | > 100 | EC50 [3]: ≥ 50 µM
7 | CC1(C)CC(=O)C=C(NC(=O)NC2CCCCC2)C1 [Compound 54, 1-Cyclohexyl-3-(5,5-dimethyl-3-oxocyclohex-1-en-1-yl)urea] | 0.098 | > 100 | 
8 | COc1ccccc1NC(=O)NC1=CC(=O)CC(C)(C)C1 [Compound 55] | 8 | > 100 | 
9 | COc1cccc(NC(=O)NC2=CC(=O)CC(C)(C)C2)c1 [Compound 56, 1-(5,5-Dimethyl-3-oxocyclohex-1-en-1-yl)-3-(3-methoxyphenyl)urea] | 0.04 | > 100 | 
10 | COc1ccc(NC(=O)NC2=CC(=O)CC(C)(C)C2)cc1 [Compound 57] | 0.89 | > 100 | 
11 | CC1(C)CC(=O)C=C(NC(=O)Nc2ccc(OCc3ccccc3)cc2)C1 [Compound 58] | 0.11 | > 100 | selectivity against panel of 76 human kinases (in words) [2]: highly selective
12 | COC(=O)c1ccc(NC(=O)NC2=CC(=O)CC(C)(C)C2)cc1 [Compound 59] |  | > 100 | selectivity against panel of 76 human kinases (in words) [2]: highly selective
13 | CC1(C)CC(=O)C=C(NC(=O)Nc2ccc(O)cc2)C1 [Compound 60] |  | 5.9 | 
14 | O=C1C=C(NC(=O)Nc2ccccc2)CCC1 [Compound 61] | > 100 | > 100 | 
15 | CN[C@@H]1C[C@H]2O[C@@](C)([C@@H]1OC)n1c3ccccc3c3c4c(c5c6ccccc6n2c5c31)C(=O)NC4 [staurosporine, reference compound] |  |  | IC50 (Leishmania CRK3–CYC6; potency (IC50) in radiometric Leishmania CRK3 assay): 0.0091 µM; IC50 [1]: 0.029 µM

From PMC3272345 (Chemmedchem, 2011)
